Measurements as given in patent US20150165000A1, “COMPOSITION FOR THERMOSTABILIZATION OF HUMAN SERUM ALBUMIN AND METHOD OF PREPARING THERMALLY STABILIZED HUMAN SERUM ALBUMIN USING THE SAME” (Ewha University - Industry Collaboration Foundation, priority 2012, published 2015).
Values belong to the molecule of their own block, whether it stands above or below them.

How the values were obtained:
human serum albumin [1] = target: T1, human serum albumin (Homo sapiens, UniProt P02768); experiment: Thermal denaturation of human serum albumin solution: check of precipitation during heating; assay type: physicochemical
T1 construct: the single supply source of human serum albumin is currently the blood of humans; purchased Sigma-Aldrich A3782
T1 sequence (P02768 25-609): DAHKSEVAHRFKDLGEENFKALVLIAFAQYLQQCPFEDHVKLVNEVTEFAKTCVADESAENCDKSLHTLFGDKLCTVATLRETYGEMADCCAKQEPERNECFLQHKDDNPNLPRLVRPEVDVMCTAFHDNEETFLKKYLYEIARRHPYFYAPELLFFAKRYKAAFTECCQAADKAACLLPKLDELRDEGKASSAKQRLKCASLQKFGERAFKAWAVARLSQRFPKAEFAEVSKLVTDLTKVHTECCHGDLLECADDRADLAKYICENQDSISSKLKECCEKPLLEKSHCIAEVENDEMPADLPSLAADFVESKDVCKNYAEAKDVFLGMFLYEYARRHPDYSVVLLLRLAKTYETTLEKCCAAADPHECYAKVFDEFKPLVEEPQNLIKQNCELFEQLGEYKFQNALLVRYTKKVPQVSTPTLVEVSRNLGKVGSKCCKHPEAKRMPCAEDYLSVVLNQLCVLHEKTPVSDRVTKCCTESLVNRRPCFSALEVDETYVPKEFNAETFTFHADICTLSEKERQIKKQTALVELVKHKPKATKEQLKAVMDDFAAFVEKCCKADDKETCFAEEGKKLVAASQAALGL
Experimental: Thus, the present inventors estimated oleic acid affecting stability depending on the temperature. […] Specifically, while the temperature was maintained at 65° C., 70° C. and 75° C., whether the precipitation was formed due to denaturation of protein was checked at intervals of 30 min, 5 min and 3 min, respectively.
Thermostabilizing effects were evaluated at 70° C. using other C18 fatty acids including stearic acid, linoleic acid, α-linolenic acid and γ-linolenic acid, as well as oleic acid, in the same manner as in Example 6.1. for testing of stability against denaturation due to thermal treatment using oleic acid.
Thermostabilizing effects at 65° C. were evaluated using C16 fatty acids including palmitic acid and palmitoleic acid, as well as oleic acid as the C18 fatty acid, in the same manner as in Examples 6.1. and 6.2. for testing of stability against degeneration due to thermal treatment using various C18 fatty acids including oleic acid. The samples were warmed to 65° C. and observed at an interval of 5 min.
Thermostabilizing effects at 65° C. were evaluated using EPA (eicosapentaenoic acid) and DHA (docosahexanoic acid) as C20 and C22 fatty acids, as well as oleic acid as the C18 fatty acid, in the same manner as in Examples 6.1. to 6.3. for testing of stability against denaturation due to thermal treatment using various C16 and C18 fatty acids.

human serum albumin [2] = target: T1, human serum albumin; experiment: Structural stability against thermal treatment: secondary structure composition from circular dichroism; assay type: physicochemical; conditions: for structural stability (ratio of α-helix / circular dichroism spectrum), in words / structural stability (ratio of α-helix by circular dichroism), in words: albumin 1 mg/mL
Experimental: The composition of the secondary structure of protein may be estimated using circular dichroism, and thus changes in structure of the thermally denatured protein may be measured.
Measurement of circular dichroism was performed three times under conditions of a data pitch of 0.2 nm, a band width of 1.0 nm, a response time of 4 sec, and a scanning speed of 50 nm/min using a quartz cuvette having a path length of 0.1 cm by use of Jasco J-715 spectropolarimeter. The composition of the secondary structure was assayed from the measured circular dichroism values using SELCON3 program contained in the Dicroprot program.

structural stability (ratio of α-helix by circular dichroism), in words (human serum albumin [2]; heated at 60° C. for 10 hr): maintained
structural stability (ratio of α-helix / circular dichroism spectrum), in words (human serum albumin [2]; heated at 70° C. for 10 hr): maintained
structural stability (circular dichroism spectrum), in words (human serum albumin [2]; heated at 70° C. for 10 hr, albumin 1 to 40 mg/mL, Example 8): stability thereof was maintained
structural stability (ratio of α-helix by circular dichroism), in words (human serum albumin [2]; heated at 80° C. for 10 hr): deteriorated
time for which denaturation was not observed (human serum albumin [1]; 60° C., albumin 50 mg/mL, fatty acid 1:1): ≥ 10 h
time for which denaturation did not occur (human serum albumin [1]; 65° C., albumin 50 mg/mL, fatty acid 1:1): about 6 hr
time after which precipitation began to form (human serum albumin [1]; 65° C., albumin 50 mg/mL, Example 6.1): 330 min
period of time maintained stably compared to the fatty acid-free human serum albumin solution (human serum albumin [1]; 70° C.): two times as long or more
time after which precipitation began to form (human serum albumin [1]; 70° C., albumin 50 mg/mL, Example 6.1): 30 min
difference between the control and the test group (human serum albumin [1]; 75° C., albumin 50 mg/mL, Example 6.1): no difference
SMILES: CCCCCCCC/C=C\CCCCCCCC(=O)O [oleic acid]

structural stability (ratio of α-helix / circular dichroism spectrum), in words (human serum albumin [2]; heated at 70° C. for 10 hr): maintained
SMILES: CCCCCCC=CCCCCCCCC(=O)O [palmitoleic acid, hexadec-9-enoic acid]

structural stability (ratio of α-helix / circular dichroism spectrum), in words (human serum albumin [2]; heated at 70° C. for 10 hr): maintained
SMILES: CCCCC/C=C\C/C=C\C/C=C\CCCCC(=O)O [γ-linolenic acid]

The remaining lines, values behind:

SMILES: CC/C=C\C/C=C\C/C=C\C/C=C\C/C=C\C/C=C\CCC(=O)O [DHA, (4Z,7Z,10Z,13Z,16Z,19Z)-docosa-4,7,10,13,16,19-hexaenoic acid]
stability against denaturation due to thermal treatment compared to the human serum albumin control (human serum albumin [1]; 65° C., albumin 50 mg/mL, Examples 6.3, 6.4): much higher

SMILES: CCCCC/C=C\C/C=C\CCCCCCCC(=O)O [linoleic acid]
structural stability (ratio of α-helix / circular dichroism spectrum), in words (human serum albumin [2]; heated at 70° C. for 10 hr): maintained

SMILES: CC/C=C\C/C=C\C/C=C\CCCCCCCC(=O)O [α-linolenic acid, all-cis-9,12,15-octadecatrienoic acid]
structural stability (ratio of α-helix / circular dichroism spectrum), in words (human serum albumin [2]; heated at 70° C. for 10 hr): maintained
